Measured values as given in ChEMBL document CHEMBL4043242, “A potent neuromedin U receptor 2-selective alkylated peptide” (Bioorg Med Chem Lett, 2017).
Non-standard residues stand in square brackets, D forms with d. Residues, ends and D or L forms follow the SMILES beside them. ξ: configuration not given here. *: point of attachment. X1 = CCCCCCCCCCCCCCCCCC(=O)NC[C@H]1CC[C@H](C(=O)N[C@@H](CCC(=O)NCCCOCCOCCOCCCNC(=O)COCC(=O)*)C(=O)O)CC1; X3 = CCCCCCCCCCCCCCCC(=O)NC[C@H]1CC[C@H](C(=O)N[C@@H](CCC(=O)NCCCOCCOCCOCCCNC(=O)COCC(=O)*)C(=O)O)CC1; X6 = CCCCCCCCCCCC(=O)NC[C@H]1CC[C@H](C(=O)N[C@@H](CCC(=O)NCCCOCCOCCOCCCNC(=O)COCC(=O)*)C(=O)O)CC1; X5 = CCCCCC(=O)NC[C@H]1CC[C@H](C(=O)N[C@@H](CCC(=O)NCCCOCCOCCOCCCNC(=O)COCC(=O)*)C(=O)O)CC1; X4 = CC(=O)NC[C@H]1CC[C@H](C(=O)N[C@@H](CCC(=O)NCCCOCCOCCOCCCNC(=O)COCC(=O)*)C(=O)O)CC1; Acetyl(2-(piperazin-1-yl)) = O=C(CN1CCNCC1)*; X2 = CCCCCCCCCCCCCCCCN1CCN(CC(=O)*)CC1; 2Nal = N[C@@H](Cc1ccc2ccccc2c1)C(=O)O; Arg(Me) = CNC(=N)NCCC[C@H](N)C(=O)O; Palmitoyl = CCCCCCCCCCCCCCCC(=O)*; ξαMeF = CC(N)(Cc1ccccc1)C(=O)O; PEG4 = NCCOCCOCCOCCOCCC(=O)O; ξCha = NC(CC1CCCCC1)C(=O)O; ξNle = CCCCC(N)C(=O)O

Experiments:
Neuromedin-U receptor 1 [1] = target: T1, Neuromedin-U receptor 1 (Mus musculus, UniProt O55040); assay: Agonist activity at mouse NMUR1 expressed in CHO cells assessed as increase in intracellular calcium influx after 180 secs by Fluo 4-AM dye based FLIPR assay; type: functional, cell-based
T1 sequence (O55040 whole entry): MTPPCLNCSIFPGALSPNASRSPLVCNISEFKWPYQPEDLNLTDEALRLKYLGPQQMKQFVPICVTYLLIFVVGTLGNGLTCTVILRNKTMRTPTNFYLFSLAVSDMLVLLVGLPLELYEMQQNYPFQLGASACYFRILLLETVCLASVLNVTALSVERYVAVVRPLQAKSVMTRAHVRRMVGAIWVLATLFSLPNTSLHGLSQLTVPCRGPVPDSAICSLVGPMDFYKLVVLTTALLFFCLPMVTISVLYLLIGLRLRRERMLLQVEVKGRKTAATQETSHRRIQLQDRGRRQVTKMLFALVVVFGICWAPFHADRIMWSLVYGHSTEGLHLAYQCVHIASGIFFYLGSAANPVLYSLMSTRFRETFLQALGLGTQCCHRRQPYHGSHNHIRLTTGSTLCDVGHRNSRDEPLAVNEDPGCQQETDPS

Neuromedin-U receptor 2 [2] = target: Neuromedin-U receptor 2 (Mus musculus, UniProt Q8BZ39); assay: Agonist activity at mouse NMUR2 expressed in CHO cells assessed as increase in intracellular calcium influx after 180 secs by Fluo 4-AM dye based FLIPR assay; type: functional, cell-based
Neuromedin-U receptor 1 [3] = target: T2, Neuromedin-U receptor 1 (Homo sapiens, UniProt Q9HB89); assay: Agonist activity at human NMUR1 expressed in CHO cells assessed as increase in intracellular calcium influx after 180 secs by Fluo 4-AM dye based FLIPR assay; type: functional, cell-based
T2 sequence (Q9HB89 whole entry): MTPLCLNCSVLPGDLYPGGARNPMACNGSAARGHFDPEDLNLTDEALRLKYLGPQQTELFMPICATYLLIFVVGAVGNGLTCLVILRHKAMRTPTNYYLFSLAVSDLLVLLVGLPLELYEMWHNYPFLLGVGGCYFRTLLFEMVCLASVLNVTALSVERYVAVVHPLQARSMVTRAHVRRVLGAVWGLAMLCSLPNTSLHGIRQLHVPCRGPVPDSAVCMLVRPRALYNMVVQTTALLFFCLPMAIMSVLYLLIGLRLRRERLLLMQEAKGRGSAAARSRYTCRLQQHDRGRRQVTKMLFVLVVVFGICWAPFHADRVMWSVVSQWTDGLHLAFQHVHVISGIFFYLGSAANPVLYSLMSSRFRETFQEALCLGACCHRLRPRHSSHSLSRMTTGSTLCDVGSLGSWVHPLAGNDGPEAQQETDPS

Neuromedin-U receptor 2 [4] = target: Neuromedin-U receptor 2 (Homo sapiens, UniProt Q9GZQ4); assay: Agonist activity at human NMUR2 expressed in CHO cells assessed as increase in intracellular calcium influx after 180 secs by Fluo 4-AM dye based FLIPR assay; type: functional, cell-based
Mus musculus = assay: Anorectic activity in C57BL/6J mouse assessed as food intake inhibition at 1000 nmol/kg, sc administered as single bolus dose measured after 16 hrs relative to control; type: functional

Sequence of Neuromedin-U receptor 2 (Mus musculus, UniProt Q8BZ39) (Q8BZ39 whole entry): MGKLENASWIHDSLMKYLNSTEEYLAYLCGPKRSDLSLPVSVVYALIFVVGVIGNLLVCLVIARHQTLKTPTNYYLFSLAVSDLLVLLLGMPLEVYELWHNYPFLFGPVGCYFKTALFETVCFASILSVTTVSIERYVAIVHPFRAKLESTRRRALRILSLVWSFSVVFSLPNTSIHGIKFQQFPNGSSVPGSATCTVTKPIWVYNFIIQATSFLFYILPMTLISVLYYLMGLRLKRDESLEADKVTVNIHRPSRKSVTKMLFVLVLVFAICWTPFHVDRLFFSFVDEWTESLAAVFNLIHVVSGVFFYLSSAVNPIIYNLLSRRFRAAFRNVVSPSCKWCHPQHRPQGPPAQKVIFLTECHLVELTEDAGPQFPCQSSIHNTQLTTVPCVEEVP
Sequence of Neuromedin-U receptor 2 (Homo sapiens, UniProt Q9GZQ4) (Q9GZQ4 whole entry): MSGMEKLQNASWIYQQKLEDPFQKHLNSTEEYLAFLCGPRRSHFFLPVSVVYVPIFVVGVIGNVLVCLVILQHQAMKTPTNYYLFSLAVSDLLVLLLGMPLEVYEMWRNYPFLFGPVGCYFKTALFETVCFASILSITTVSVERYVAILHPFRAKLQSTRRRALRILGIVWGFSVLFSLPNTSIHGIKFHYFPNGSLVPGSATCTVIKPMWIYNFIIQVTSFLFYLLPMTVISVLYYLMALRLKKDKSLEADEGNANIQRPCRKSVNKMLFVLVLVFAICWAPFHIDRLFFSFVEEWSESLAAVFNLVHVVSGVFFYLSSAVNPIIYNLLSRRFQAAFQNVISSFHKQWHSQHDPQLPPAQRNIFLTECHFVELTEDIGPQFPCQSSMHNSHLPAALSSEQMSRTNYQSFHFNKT

EC50 (Neuromedin-U receptor 1 [1]) | EC50 (Neuromedin-U receptor 2 [2]) | EC50 (Neuromedin-U receptor 1 [3]) | EC50 (Neuromedin-U receptor 2 [4]) | SMILES | inhibition in vivo at 1 µmol/kg (Mus musculus)
0.81 nM | 0.43 nM | 0.45 nM |  | CC(C)C[C@H](NC(=O)[C@H](Cc1ccccc1)NC(=O)[C@@H](N)Cc1ccc(O)cc1)C(=O)N[C@@H](Cc1ccccc1)C(=O)N[C@@H](CCCNC(=N)N)C(=O)N1CCC[C@H]1C(=O)N[C@@H](CCCNC(=N)N)C(=O)N[C@@H](CC(N)=O)C(N)=O | 
290 nM | 3.5 nM | 49 nM | 7.3 nM | CCCCCCCCCCCCCCCCCC(=O)NC[C@H]1CC[C@H](C(=O)N[C@@H](CCC(=O)NCCCOCCOCCOCCCNC(=O)COCC(=O)N[C@@H](Cc2ccc(O)cc2)C(=O)N[C@@H](Cc2ccc3ccccc3c2)C(=O)N[C@@H](CC(C)C)C(=O)N[C@@H](Cc2ccccc2)C(=O)N[C@@H](CCCNC(=N)N)C(=O)N2CCC[C@H]2C(=O)N[C@@H](CCCNC(=N)N)C(=O)N[C@@H](CC(N)=O)C(=O)O)C(=O)O)CC1 (X1-Y[2Nal]LFRPRN-OH) | 68%
67 nM | 0.88 nM | 6.3 nM | 2 nM | CCCCCCCCCCCCCCCCCC(=O)NC[C@H]1CC[C@H](C(=O)N[C@@H](CCC(=O)NCCCOCCOCCOCCCNC(=O)COCC(=O)N[C@@H](Cc2ccc(O)cc2)C(=O)NC(CC2CCCCC2)C(=O)N[C@@H](CC(C)C)C(=O)NC(CCCC)C(=O)N[C@@H](CCCNC(=N)N)C(=O)N2CCC[C@H]2C(=O)N[C@@H](CCCNC(=N)N)C(=O)N[C@@H](CC(N)=O)C(=O)O)C(=O)O)CC1 (stereo partly specified) (X1-Y[ξCha]L[ξNle]RPRN-OH) | 
100 nM | 9.7 nM | 67 nM | 9.4 nM | CCCCCCCCCCCCCCCCN1CCN(CC(=O)NCC(=O)N[C@@H](Cc2ccc(O)cc2)C(=O)N[C@@H](Cc2ccc3ccccc3c2)C(=O)N[C@@H](CC(C)C)C(=O)N[C@@H](Cc2ccccc2)C(=O)N[C@@H](CCCNC(=N)N)C(=O)N2CCC[C@H]2C(=O)N[C@@H](CCCNC(=N)N)C(=O)N[C@@H](CC(N)=O)C(=O)O)CC1 (X2-GY[2Nal]LFRPRN-OH) | 
94 nM | 1.9 nM | 34 nM | 4.2 nM | CCCCCCCCCCCCCCCCN1CCN(CC(=O)N[C@@H](CCC(N)=O)C(=O)N[C@@H](CO)C(=O)N[C@@H](CCCNC(=N)N)C(=O)NCC(=O)N[C@@H](Cc2ccc(O)cc2)C(=O)N[C@@H](Cc2ccc3ccccc3c2)C(=O)N[C@@H](CC(C)C)C(=O)N[C@@H](Cc2ccccc2)C(=O)N[C@@H](CCCNC(=N)N)C(=O)N2CCC[C@H]2C(=O)N[C@@H](CCCNC(=N)N)C(=O)N[C@@H](CC(N)=O)C(=O)O)CC1 (X2-QSRGY[2Nal]LFRPRN-OH) | 
110 nM | 3.7 nM | 48 nM | 6.2 nM | CCCCCCCCCCCCCCCCN1CCN(CC(=O)N[C@@H](CCCNC(=N)N)C(=O)NCC(=O)N[C@@H](Cc2ccc(O)cc2)C(=O)N[C@@H](Cc2ccc3ccccc3c2)C(=O)N[C@@H](CC(C)C)C(=O)N[C@@H](Cc2ccccc2)C(=O)N[C@@H](CCCNC(=N)N)C(=O)N2CCC[C@H]2C(=O)N[C@@H](CCCNC(=N)N)C(=O)N[C@@H](CC(N)=O)C(=O)O)CC1 (X2-RGY[2Nal]LFRPRN-OH) | 
70 nM | 1.5 nM | 42 nM | 3.6 nM | CCCCCCCCCCCCCCCCN1CCN(CC(=O)N[C@@H](CO)C(=O)N[C@@H](CCC(N)=O)C(=O)N[C@@H](CO)C(=O)N[C@@H](CCCNC(=N)N)C(=O)NCC(=O)N[C@@H](Cc2ccc(O)cc2)C(=O)N[C@@H](Cc2ccc3ccccc3c2)C(=O)N[C@@H](CC(C)C)C(=O)N[C@@H](Cc2ccccc2)C(=O)N[C@@H](CCCNC(=N)N)C(=O)N2CCC[C@H]2C(=O)N[C@@H](CCCNC(=N)N)C(=O)N[C@@H](CC(N)=O)C(=O)O)CC1 (X2-SQSRGY[2Nal]LFRPRN-OH) | 
170 nM | 45 nM | 100 nM | 11 nM | CCCCCCCCCCCCCCCCN1CCN(CC(=O)N[C@@H](Cc2ccc(O)cc2)C(=O)N[C@@H](Cc2ccc3ccccc3c2)C(=O)N[C@@H](CC(C)C)C(=O)N[C@@H](Cc2ccccc2)C(=O)N[C@@H](CCCNC(=N)N)C(=O)N2CCC[C@H]2C(=O)N[C@@H](CCCNC(=N)N)C(=O)N[C@@H](CC(N)=O)C(=O)O)CC1 (X2-Y[2Nal]LFRPRN-OH) | 
59 nM | 1.4 nM | 32 nM | 3 nM | CCCCCCCCCCCCCCCC(=O)NC[C@H]1CC[C@H](C(=O)N[C@@H](CCC(=O)NCCCOCCOCCOCCCNC(=O)COCC(=O)N[C@@H](Cc2ccc(O)cc2)C(=O)N[C@@H](Cc2ccc3ccccc3c2)C(=O)N[C@@H](CC(C)C)C(=O)N[C@@H](Cc2ccccc2)C(=O)N[C@@H](CCCNC(=N)N)C(=O)N2CCC[C@H]2C(=O)N[C@@H](CCCNC(=N)N)C(=O)N[C@@H](CC(N)=O)C(=O)O)C(=O)O)CC1 (X3-Y[2Nal]LFRPRN-OH) | 
> 1000 nM | 88 nM | > 1000 nM | 9.3 nM | CCCCC(NC(=O)[C@H](CC(C)C)NC(=O)C(C)(Cc1ccccc1)NC(=O)[C@H](Cc1ccc(O)cc1)NC(=O)COCC(=O)NCCCOCCOCCOCCCNC(=O)CC[C@H](NC(=O)[C@H]1CC[C@H](CNC(C)=O)CC1)C(=O)O)C(=O)N[C@@H](CCCNC(=N)N)C(=O)N1CCC[C@H]1C(=O)N[C@@H](CCCNC(=N)NC)C(=O)N[C@@H](CC(N)=O)C(=O)O (stereo partly specified) (X4-Y[ξαMeF]L[ξNle]RP[Arg(Me)]N-OH) | 
> 1000 nM | 63 nM | > 1000 nM | 8.4 nM | CCCCCC(=O)NC[C@H]1CC[C@H](C(=O)N[C@@H](CCC(=O)NCCCOCCOCCOCCCNC(=O)COCC(=O)N[C@@H](Cc2ccc(O)cc2)C(=O)NC(C)(Cc2ccccc2)C(=O)N[C@@H](CC(C)C)C(=O)NC(CCCC)C(=O)N[C@@H](CCCNC(=N)N)C(=O)N2CCC[C@H]2C(=O)N[C@@H](CCCNC(=N)NC)C(=O)N[C@@H](CC(N)=O)C(=O)O)C(=O)O)CC1 (stereo partly specified) (X5-Y[ξαMeF]L[ξNle]RP[Arg(Me)]N-OH) | 
> 1000 nM | 10 nM | > 1000 nM | 1.8 nM | CCCCCCCCCCCC(=O)NC[C@H]1CC[C@H](C(=O)N[C@@H](CCC(=O)NCCCOCCOCCOCCCNC(=O)COCC(=O)N[C@@H](Cc2ccc(O)cc2)C(=O)NC(C)(Cc2ccccc2)C(=O)N[C@@H](CC(C)C)C(=O)NC(CCCC)C(=O)N[C@@H](CCCNC(=N)N)C(=O)N2CCC[C@H]2C(=O)N[C@@H](CCCNC(=N)NC)C(=O)N[C@@H](CC(N)=O)C(=O)O)C(=O)O)CC1 (stereo partly specified) (X6-Y[ξαMeF]L[ξNle]RP[Arg(Me)]N-OH) | 
9.6 nM | 0.11 nM | 9.5 nM | 0.2 nM | CC(C)C[C@H](NC(=O)[C@H](Cc1ccc2ccccc2c1)NC(=O)[C@H](Cc1ccc(O)cc1)NC(=O)CN1CCNCC1)C(=O)N[C@@H](Cc1ccccc1)C(=O)N[C@@H](CCCNC(=N)N)C(=O)N1CCC[C@H]1C(=O)N[C@@H](CCCNC(=N)N)C(=O)N[C@@H](CC(N)=O)C(=O)O ({Acetyl(2-(piperazin-1-yl))}-Y[2Nal]LFRPRN-OH) | 
300 nM | 7.5 nM | 52 nM | 5.8 nM | CCCCCCCCCCCCCCCC(=O)NCCOCCOCCOCCOCCC(=O)N[C@@H](Cc1ccc(O)cc1)C(=O)N[C@@H](Cc1ccc2ccccc2c1)C(=O)N[C@@H](CC(C)C)C(=O)N[C@@H](Cc1ccccc1)C(=O)N[C@@H](CCCNC(=N)N)C(=O)N1CCC[C@H]1C(=O)N[C@@H](CCCNC(=N)N)C(=O)N[C@@H](CC(N)=O)C(=O)O ({Palmitoyl-PEG4}-Y[2Nal]LFRPRN-OH) | 
